Earlier results on one substance are cited in paper PMC10723152 (Proceedings of the National Academy of Sciences of the …, 2023).

The series deals with cynomolgus macaques. The following applies: adult male cynomolgus macaques, 2 Gy sublethal whole-body irradiation.

As to “recombinant hGH: recombinant human Growth Hormone, biologic compared from the authors' previous work”, the hematopoietic recovery result was “enhanced hematopoietic recovery”.
